In series [1] the test system is T-24. The series is described as follows: Antiproliferative activity against human T24 cells after 96 hrs by crystal violet assay. Type of series: functional. The conditions noted are these: T-24, 96 h, read-out: ED50 (the source's name).
For the next series, the system named is HFL1. Description: Induction of glycosaminoglycan synthesis priming in human HFL1 cells assessed as ratio of fractions containing free glycosaminoglycan chains in drug to untreated control. Also: test concentration or dose not given here. Type of series: cell-based.
In series [2] the test system is T-24. Description: Induction of glycosaminoglycan synthesis priming in human T24 cells assessed as ratio of fractions containing free glycosaminoglycan chains in drug to untreated control. Also: test concentration or dose not given here. Type of series: functional.
Series [3] in a line: Antiproliferative activity against human HFL1 cells after 96 hrs by crystal violet assay. In kind it is cell-based. The conditions noted are these: read-out: ED50.

For `CC(=O)Oc1ccc(O[C@@H]2OC[C@@H](OC(C)=O)[C@H](OC(C)=O)[C@H]2OC(C)=O)c2ccccc12`, the EC50 in the series on T-24 [1] is 130 µM. In addition, the Ratio with HFL1 is reported as 4.8; with T-24 [2] it was 9. Moreover, the GI50 at 96 h in series [3] was 80 µM.

For the compound `CC(=O)O[C@@H]1[C@@H](OC(C)=O)[C@H](Oc2cc3ccccc3cc2O[C@@H]2OC[C@@H](OC(C)=O)[C@H](OC(C)=O)[C@H]2OC(C)=O)OC[C@H]1OC(C)=O`, the EC50 in the series with T-24 [1] worked out at 220 µM. Besides, the Ratio in the series on HFL1 came to 2.8; in the series on T-24 [2], 4.2. In addition, in series [3], the GI50 at 96 h amounted to 30 µM.

`CC(=O)Oc1cccc2c(O[C@@H]3OC[C@@H](OC(C)=O)[C@H](OC(C)=O)[C@H]3OC(C)=O)cccc12`: in the series with T-24 [1], the EC50 amounted to 170 µM. The values for the Ratio with HFL1 and in the series on T-24 [2] were 2.7 and 6.1, respectively. In series [3], the GI50 at 96 h is 90 µM.

`CC(=O)Oc1cccc2ccc(O[C@@H]3OC[C@@H](OC(C)=O)[C@H](OC(C)=O)[C@H]3OC(C)=O)cc12`: the EC50 with T-24 [1] was determined as 75 µM. Moreover, the Ratio amounted to 2.1 in the series on HFL1 and 4.8 in the series on T-24 [2]. Moreover, in series [3], the GI50 at 96 h came out at 65 µM.

Take `CC(=O)Oc1cc(O[C@@H]2OC[C@@H](OC(C)=O)[C@H](OC(C)=O)[C@H]2OC(C)=O)cc2ccccc12`: in the series on T-24 [1], the EC50 came to 65 µM. The Ratio in the series on HFL1 is on record as 1; with T-24 [2], 3.7. The GI50 at 96 h in series [3] worked out at 60 µM.

On to `CC(=O)O[C@@H]1[C@@H](OC(C)=O)[C@H](Oc2ccc3c(O[C@@H]4OC[C@@H](OC(C)=O)[C@H](OC(C)=O)[C@H]4OC(C)=O)cccc3c2)OC[C@H]1OC(C)=O`, for which the EC50 in the series with T-24 [1] was 100 µM. For the same compound, the Ratio stood at 12.7 in the series on HFL1 and 8.8 with T-24 [2]. The GI50 at 96 h in series [3] is 160 µM.

As to `CC(=O)O[C@@H]1[C@@H](OC(C)=O)[C@H](Oc2cccc3cccc(O[C@@H]4OC[C@@H](OC(C)=O)[C@H](OC(C)=O)[C@H]4OC(C)=O)c23)OC[C@H]1OC(C)=O`, in the series with T-24 [1], the EC50 came out at 190 µM. In addition, the Ratio in the series on HFL1 stood at 2.4; in the series with T-24 [2], 1.7. The GI50 at 96 h in series [3] is 20 µM.

As to `CC(=O)O[C@@H]1[C@@H](OC(C)=O)[C@H](Oc2ccc(O[C@@H]3OC[C@@H](OC(C)=O)[C@H](OC(C)=O)[C@H]3OC(C)=O)c3ccccc23)OC[C@H]1OC(C)=O`, the EC50 in the series with T-24 [1] was found to be 140 µM. Moreover, the results for the Ratio in the series on HFL1 and in the series on T-24 [2] were 13.6 and 8, respectively. Moreover, the GI50 at 96 h in series [3] stood at 15 µM.

For `CC(=O)Oc1ccc2ccc(O[C@@H]3OC[C@@H](OC(C)=O)[C@H](OC(C)=O)[C@H]3OC(C)=O)cc2c1`, the EC50 with T-24 [1] was 190 µM. Also, the Ratio was 2.2 in the series with HFL1 and 6.5 with T-24 [2]. Also, the GI50 at 96 h in series [3] was 85 µM.

`CC(=O)O[C@@H]1[C@@H](OC(C)=O)[C@H](Oc2ccc3cc(O[C@@H]4OC[C@@H](OC(C)=O)[C@H](OC(C)=O)[C@H]4OC(C)=O)ccc3c2)OC[C@H]1OC(C)=O`: the EC50 in the series on T-24 [1] is 320 µM. For the same compound, the Ratio with HFL1 is 15.5; in the series with T-24 [2], 8.2. The GI50 at 96 h in series [3] is 55 µM.

For `CC(=O)O[C@@H]1[C@@H](OC(C)=O)[C@H](Oc2ccc3cccc(O[C@@H]4OC[C@@H](OC(C)=O)[C@H](OC(C)=O)[C@H]4OC(C)=O)c3c2)OC[C@H]1OC(C)=O`, the EC50 in the series on T-24 [1] was 110 µM. Moreover, the Ratio worked out at 11.1 in the series with HFL1 and 0.5 in the series on T-24 [2]. Further, the GI50 at 96 h in series [3] was found to be 135 µM.

Take `CC(=O)O[C@@H]1[C@@H](OC(C)=O)[C@H](Oc2cc(O[C@@H]3OC[C@@H](OC(C)=O)[C@H](OC(C)=O)[C@H]3OC(C)=O)c3ccccc3c2)OC[C@H]1OC(C)=O`: the EC50 in the series on T-24 [1] was 40 µM. Further, the Ratio worked out at 4.7 in the series with HFL1 and 3.4 in the series with T-24 [2]. The GI50 at 96 h in series [3] is 20 µM.

Take `CC(=O)Oc1cccc2cccc(O[C@@H]3OC[C@@H](OC(C)=O)[C@H](OC(C)=O)[C@H]3OC(C)=O)c12`: the EC50 in the series on T-24 [1] was found to be 205 µM. Also, the Ratio with HFL1 was determined as 0.8; in the series on T-24 [2], 2.4. In addition, in series [3], the GI50 at 96 h was found to be 110 µM.

Regarding `CC(=O)Oc1cc2ccccc2cc1O[C@@H]1OC[C@@H](OC(C)=O)[C@H](OC(C)=O)[C@H]1OC(C)=O`, the EC50 with T-24 [1] was 260 µM. The Ratio in the series on HFL1 amounted to 2.2; in the series on T-24 [2] it was 4.6. In series [3], the GI50 at 96 h came to 75 µM.

On to `CC(=O)Oc1ccc2ccccc2c1O[C@@H]1OC[C@@H](OC(C)=O)[C@H](OC(C)=O)[C@H]1OC(C)=O`, for which the EC50 in the series with T-24 [1] came out at 170 µM. In addition, the Ratio in the series with HFL1 is listed as 0.6; in the series with T-24 [2], 0.5. The GI50 at 96 h in series [3] was determined as 65 µM.

With `CC(=O)Oc1c(O[C@@H]2OC[C@@H](OC(C)=O)[C@H](OC(C)=O)[C@H]2OC(C)=O)ccc2ccccc12`, the EC50 in the series on T-24 [1] was 250 µM. In addition, the Ratio in the series on HFL1 was 1.8; with T-24 [2], 7.1. The GI50 at 96 h in series [3] was 110 µM.

Turning to `CC(=O)Oc1ccc2cccc(O[C@@H]3OC[C@@H](OC(C)=O)[C@H](OC(C)=O)[C@H]3OC(C)=O)c2c1`, the EC50 in the series with T-24 [1] came to 170 µM. For the same compound, the Ratio in the series on HFL1 was determined as 6.2; in the series on T-24 [2], 8.2. In addition, the GI50 at 96 h in series [3] worked out at 80 µM.

`CC(=O)Oc1ccc2c(O[C@@H]3OC[C@@H](OC(C)=O)[C@H](OC(C)=O)[C@H]3OC(C)=O)cccc2c1`: the EC50 in the series on T-24 [1] came to 110 µM. The Ratio with HFL1 came out at 1.8; in the series on T-24 [2], 6.4. In addition, the GI50 at 96 h in series [3] is 80 µM.

Turning to `CC(=O)O[C@@H]1[C@@H](OC(C)=O)[C@H](Oc2ccc3ccc(O[C@@H]4OC[C@@H](OC(C)=O)[C@H](OC(C)=O)[C@H]4OC(C)=O)cc3c2)OC[C@H]1OC(C)=O`, the EC50 in the series on T-24 [1] came out at 60 µM. Further, the results for the Ratio in the series on HFL1 and in the series with T-24 [2] were 6.4 and 5.4, respectively. The GI50 at 96 h in series [3] was 65 µM.

`CC(=O)Oc1cccc2cc(O[C@@H]3OC[C@@H](OC(C)=O)[C@H](OC(C)=O)[C@H]3OC(C)=O)ccc12`: the EC50 in the series on T-24 [1] was found to be 65 µM. In addition, the Ratio is reported as 1.3 in the series on HFL1 and 6.9 in the series on T-24 [2]. The GI50 at 96 h in series [3] came to 100 µM.

In the case of `CC(=O)Oc1ccc2cc(O[C@@H]3OC[C@@H](OC(C)=O)[C@H](OC(C)=O)[C@H]3OC(C)=O)ccc2c1`, the EC50 in the series with T-24 [1] worked out at 45 µM. Further, the Ratio with HFL1 was found to be 2.5; with T-24 [2], 5.4. Moreover, the GI50 at 96 h in series [3] came out at 80 µM.

`CC(=O)O[C@@H]1[C@@H](OC(C)=O)[C@H](Oc2ccc3ccccc3c2O[C@@H]2OC[C@@H](OC(C)=O)[C@H](OC(C)=O)[C@H]2OC(C)=O)OC[C@H]1OC(C)=O`: the EC50 in the series on T-24 [1] was determined as 25 µM. The results for the Ratio in the series with HFL1 and in the series with T-24 [2] were 0.8 and 1.4, respectively. In addition, the GI50 at 96 h in series [3] amounted to 5 µM.

Turning to `CC(=O)Oc1cc(O[C@@H]2OC[C@@H](OC(C)=O)[C@H](OC(C)=O)[C@H]2OC(C)=O)c2ccccc2c1`, the EC50 in the series with T-24 [1] was determined as 25 µM. Besides, the values for the Ratio in the series on HFL1 and in the series with T-24 [2] were 2.2 and 4.5, respectively. For the same compound, in series [3], the GI50 at 96 h was 20 µM.

For the compound `CC(=O)O[C@@H]1[C@@H](OC(C)=O)[C@H](Oc2cccc3c(O[C@@H]4OC[C@@H](OC(C)=O)[C@H](OC(C)=O)[C@H]4OC(C)=O)cccc23)OC[C@H]1OC(C)=O`, the EC50 with T-24 [1] was 170 µM. In addition, the Ratio is listed as 5.4 in the series on HFL1 and 6.9 in the series with T-24 [2]. The GI50 at 96 h in series [3] stood at 10 µM.

The values are drawn from ChEMBL document CHEMBL1153912, “Antiproliferative effects of peracetylated naphthoxylosides” (Bioorg Med Chem Lett, 2009).
